Insulin secretion data for one compound are collected here from patent US8093288B2, “Genipin derivatives and uses thereof” (Beth Israel Deaconess Medical Center, priority 2003, dated 2012).

“Also recorded” adds a separate entry of the source.

Assay [1] relates to pancreatic islets from wildtype mice. The experiment in a line: Insulin secretion in isolated pancreatic islets from wildtype mice. In kind it is cell-based. The following applies: 5.5 mM glucose; 50 nM, 0.5 μM and 5 μM genipin; 37° C. for 60 min; WT islets; FIG. 4 / FIG. 11B. As to the method: (§1) As used or herein, pancreatic islets from wildtype and UCP2 knockout mice were isolated according to a method used for rats (Cawthorn and Chan, Mol. Cell. Endocrinol. 1991, 75:197-204, the entire teachings of which are incorporated herein by reference), except that the total exposure to type XI collagenase (Worthington Biochemical Co., NJ) was 30 min. and the Ficoll gradient was altered to layers of 25%, 23%, 21%, and 11%. Islets were harvested from the 11%-21% interface.
(§2) Islets were cultured in RPMI medium containing 11.0 mM glucose and supplemented with 1% penicillin-streptomycin. 7.5% fetal bovine serum (all from Gibco/BRL, Burlington, ON), and 10 mM Hepes (Sigma). After culturing for 20-24 hr, the islets were transferred to microcentrifuge tubes, pelleted (800 g for 5 min), and the medium aspirated and replaced with 1.0 mL DME medium containing 1% gelatin and 5.5 mM glucose with no genipin (control), 50 nM genipin, 0.5 μM genipin, and 5 μM genipin. For insulin secretion studies, the three islets were incubated per tube. After incubation at 37° C. for 60 min., the islets were centrifuged. The supernatant was collected and stored at −80° C., and then later assayed for insulin using Rat Insulin ELISA Kit (Cat. No. INSKR020, Crystal Chem., Inc., Chicago, Ill.).
(§3) FIGS. 11B and 11C show their effects on insulin secretion. Pancreatic islets were isolated from WT or UCP2 knockout (KO) mice. […]

In assay [2] the test system is pancreatic islets from UCP2 knockout mice. The experiment in a line: Insulin secretion in isolated pancreatic islets from UCP2 knockout mice. Particulars: 5.5 mM glucose, 50 nM, 0.5 μM and 5 μM genipin, 37° C. for 60 min, FIG. 4 / FIG. 11B. The assay is classed as cell-based. As to the method: as §1, §2, §3

As for `COC(=O)C1=CO[C@@H](O)[C@@H]2C(CO)=CC[C@H]12` [genipin], the insulin secretion result in assay [1] is “increases insulin secretion in a dose-dependent manner”; in assay [2], “does not increase insulin secretion; also recorded: no effect on insulin secretion”.
